Here are results for one compound from patent US9656953B2, “Inhibition of cell proliferation” (University of South Florida, priority 2005, dated 2017).

“Also recorded” adds a separate entry of the source.

In assay [1] the target is T1, Rb:Raf-1 interaction in tumor xenografts (Homo sapiens, UniProt P04049+P06400).
T1 construct: from tissue; host or cells: A549 xenograft tumors from nude mice
In words: IP-Western of tumor lysates, Rb:Raf-1. It is filed as in vivo, nude mice. The settings on record: both doses. As to the method:
Lysate preparation, pmmunoprecipitation, and pestern plotting.
At the end of the drug treatment, the A549 tumors were removed from the mice and fixed in formalin or snap frozen in liquid nitrogen for further histochemical analysis. The tumors were analyzed by immunohistochemistry staining with hematoxylin and eosin (H&E), TUNEL, Ki-67, phospho-Rb (807,811), and CD-31. […] Tumors were homogenized and lysates were prepared to assess the inhibition of Rb:Raf-1 interaction in vivo.

In a further assay the test system is MDA-MB-231 cells. As to the kind of experiment: BrdU proliferation assay, MDA-MB-231. In kind it is cell-based, human. As to the method: (§1) Proliferation assays. Bromodeoxyuridine (BrdU) labeling kits were obtained from Roche Biochemicals (Indianapolis, Ind.). Cells were plated in poly-D-lysine coated chamber slides at a density of 10,000 cells per well and rendered quiescent by serum starvation for 24 hours. Cells were then re-stimulated with serum in the presence or absence of the indicated drugs for 18 h. S-phase cells were visualized by microscopy and quantitated by counting 3 fields of 100 in quadruplicate.
The metastatic human breast cancer cell line MDA-MB-231 harbors a K-Ras mutation and overexpresses EGFR.

Assay [2] has as its system U87MG glioblastoma cell line. As to the kind of experiment: BrdU incorporation, S-phase entry, U87MG. It is filed as cell-based. The note with it: null for p16 and PTEN. On the procedure:
as §1
For orientation: Dividing cells build labelled thymidine or BrdU into new DNA.

Assay [3] has as its system Human aortic endothelial cells (HAECs). As to the kind of experiment: Matrigel angiogenic tubule formation. It is filed as cell-based. The note with it: 20 μM. On the procedure:
Matrigel assays. […] A total of 100 μl of thawed Matrigel was added to 96-well tissue culture plates, followed by incubation at 37° C. for 60 minutes to allow polymerization. […] Capillary tube formation assessed by using a Leica DMIL phase contrast microscope.
An experiment was performed to determine whether angiogenic tubule formation could be inhibited by the disclosed compounds.

T1 sequence (P06400 whole entry): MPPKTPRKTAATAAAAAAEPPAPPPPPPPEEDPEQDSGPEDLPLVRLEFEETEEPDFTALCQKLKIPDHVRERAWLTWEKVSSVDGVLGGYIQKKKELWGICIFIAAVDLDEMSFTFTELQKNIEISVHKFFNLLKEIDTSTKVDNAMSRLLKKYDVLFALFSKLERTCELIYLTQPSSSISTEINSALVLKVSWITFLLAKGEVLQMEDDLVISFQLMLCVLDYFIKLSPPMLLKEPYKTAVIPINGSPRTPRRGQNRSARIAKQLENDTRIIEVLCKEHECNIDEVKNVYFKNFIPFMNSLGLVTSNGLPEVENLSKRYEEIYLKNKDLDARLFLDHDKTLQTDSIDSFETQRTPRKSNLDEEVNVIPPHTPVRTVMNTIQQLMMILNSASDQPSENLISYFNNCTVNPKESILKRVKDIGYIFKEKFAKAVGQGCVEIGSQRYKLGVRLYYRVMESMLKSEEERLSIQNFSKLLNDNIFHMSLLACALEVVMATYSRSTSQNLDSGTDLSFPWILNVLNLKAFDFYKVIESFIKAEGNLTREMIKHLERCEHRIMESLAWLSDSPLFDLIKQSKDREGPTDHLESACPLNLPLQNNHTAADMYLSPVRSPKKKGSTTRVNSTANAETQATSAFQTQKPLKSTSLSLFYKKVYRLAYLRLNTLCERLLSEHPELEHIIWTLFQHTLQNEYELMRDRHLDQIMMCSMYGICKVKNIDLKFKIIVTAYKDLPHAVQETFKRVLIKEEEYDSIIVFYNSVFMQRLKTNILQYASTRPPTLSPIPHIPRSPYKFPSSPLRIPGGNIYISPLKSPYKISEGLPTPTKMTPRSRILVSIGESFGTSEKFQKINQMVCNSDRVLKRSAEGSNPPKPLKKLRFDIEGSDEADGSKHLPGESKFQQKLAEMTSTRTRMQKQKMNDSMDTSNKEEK
T1 sequence (P04049 whole entry): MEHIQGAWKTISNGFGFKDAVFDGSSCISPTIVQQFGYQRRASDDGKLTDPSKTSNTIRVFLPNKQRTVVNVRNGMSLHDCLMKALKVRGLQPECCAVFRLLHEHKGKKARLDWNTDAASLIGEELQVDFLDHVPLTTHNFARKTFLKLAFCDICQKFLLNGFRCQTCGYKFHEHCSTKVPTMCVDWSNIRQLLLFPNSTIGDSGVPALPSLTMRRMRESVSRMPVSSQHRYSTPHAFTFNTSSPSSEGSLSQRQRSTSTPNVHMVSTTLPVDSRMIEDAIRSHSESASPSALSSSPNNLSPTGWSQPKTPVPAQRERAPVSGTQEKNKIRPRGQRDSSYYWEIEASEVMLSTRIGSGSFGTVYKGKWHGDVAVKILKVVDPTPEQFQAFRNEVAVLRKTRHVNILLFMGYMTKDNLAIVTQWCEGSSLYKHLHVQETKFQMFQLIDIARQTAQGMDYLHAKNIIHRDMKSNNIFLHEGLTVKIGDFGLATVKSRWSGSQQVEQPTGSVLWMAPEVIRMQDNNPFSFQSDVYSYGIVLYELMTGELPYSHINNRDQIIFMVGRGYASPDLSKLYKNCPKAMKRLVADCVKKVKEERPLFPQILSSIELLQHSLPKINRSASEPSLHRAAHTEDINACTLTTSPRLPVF

Turning to `Cl.N=C(N)SCc1ccc(Cl)cc1Cl` [Compound 3a], the “Rb:Raf-1 interaction in tumor lysates” value in assay [1] is listed as “inhibit the Rb:Raf-1 interaction in tumor lysates”. In the assay with MDA-MB-231 cells, the “inhibition of proliferation, MDA-MB-231” value came to 56%. In assay [2], the “S-phase entry, U87MG” value is “inhibited S-phase entry”. In addition, in assay [3], the “angiogenic tubule formation in matrigel” value is on record as “inhibit angiogenic tubule formation; also recorded: significantly inhibited the angiogenic tubule formation”.
